According to patent US11679123B2, “N-acylated hyaluronic acid for hyperuricemia and gouty arthritis” (Queen's University at Kingston, priority 2018, dated 2023):

What was measured:
[1] = tested on: rats with MSU-induced gouty arthritis; assay: Dose screening on MSU crystals-induced acute gout in rats: ankle swelling ratio; type: in vivo, Wistar rats; details: P<0.05
Method: (§1) 48 male Wistar rats (8 weeks: 180-200 g), purchased from Yisi Experimental Animal Technology Company Ltd, Jilin, China (SCXK (Ji)-2016-0003), were housed in plastic cages and maintained on a 12-h light/12-h dark cycle (lights on 7:00-19:00 h) under standard laboratory conditions of 55% relative humidity and 23° C.±1° C. They were given standard chow and tap water ad libitum. All experimental procedures were approved by the Animal Ethics Committee of Jilin University (Reference NO. 201605).
An experimental model of MSU-induced gouty arthritis was used in order to evaluate the anti-inflammatory activities of BHA similar as previous studies with some modifications. Rats were randomly divided into eight groups (n=6), including control group (NC), model group (MC), 0.3 mg/kg colchicine group (COL), 5 μg BHA group (5BHA), 10 μg BHA group (10BHA), 25 μg BHA group (25BHA), 50 μg BHA group (50BHA), 100 μg BHA group (100BHA). MSU crystals were suspended in 0.9% sterile saline (30 mg/mL) prior to use. Rats in the colchicine group were orally administered colchicine (0.3 mg/kg) for 8 days. At day 6, MSU solution (100 μL of 30 mg/mL) was intra-articular injected at the right ankles of all rats except the NC group m which were injected with saline solution. 5BHA, 10BHA, 25BHA, 50BHA and 100BHA groups received intra-articular injections of 5, 10, 25, 50, or 100 μg BHA along with MSU solution (100 μL of 30 mg/mL MSU solution contains 5, 10, 25, 50 or 100 μg BHA) were administered according to the stated BHA doses.
The right ankle circumference of all rats at 0, 4, 12, 24 and 48 h after MSU injection was measured. The swelling ratio (%) was used for evaluating the gouty arthritis and calculated according to the change of the circumference following the formula: Swelling ratio (%)=(Ct−C0)/C0. Wherein, Ct represented the circumference at t hour and C0 represented the circumference at 0 hour.

hyperuricemic mice = assay: Serum UA in OXO- and yeast extract-induced hyperuricemic mice; type: in vivo, Balb/C mice; details: BHA (10 μg and 50 μg intraperitoneal), P<0.05
Method: as §1, with “Male Balb/C mice (n=50, 8” for “48 male Wistar rats (8”, “18-22” for “180-200”, “(Ji)-2016-0003). These mice” for “(Ji)-2016-0003),”, “23±1°” for “23° C.±1°”, “feed” for “chow”
Due to the presence of uricase in mice, a hyperuricemic mouse model was established by using uricase inhibitor and large amounts of purine. Mice were randomly divided into five groups (n=10), including the control group (NC), model group (MC), 20 mg/kg of AL (Shimao Tianjie Pharmaceutical Co. Ltd, Jiangsu, China) group, 10 μg BHA group (10BHA) and 50 μg BHA group (50BHA). Oral administration of AL and intraperitoneal injection of BHA were administered according to the required dose, and all mice were gavage fed 20 g/kg yeast extract powder 12 h prior to the administration of AL and BHA except for NC mice for 8 days. […]
The serum UA concentrations and XO levels in the serum and liver were determined with a standard diagnostic kit (MAK077, MAK078 Sigma, USA) according to the manufacturer's instructions.

Substance: N-butyrylated HA [BHA]
- swelling of the ankle compared to MSU treated group ([1]; n=6, BHA 5-100 μg intra-articular, at 4 h and 12 h): significantly suppressed swelling
- swelling of the ankle compared to MSU treated group ([1]; n=6, BHA at doses of 10 μg, 50 μg and 100 μg, at 48 h): significant suppressing of swelling effect
- serum UA levels (hyperuricemic mice): significantly suppressed serum UA levels
